According to patent US9822157B2 (priority 2013, dated 2017):
Where two headings read alike, the source gives them in different places.

Assays:
[1] = molecular target: T1, human ferroportin (Homo sapiens, UniProt Q9NP59); format: cell-based
T1 sequence (Q9NP59 1-571): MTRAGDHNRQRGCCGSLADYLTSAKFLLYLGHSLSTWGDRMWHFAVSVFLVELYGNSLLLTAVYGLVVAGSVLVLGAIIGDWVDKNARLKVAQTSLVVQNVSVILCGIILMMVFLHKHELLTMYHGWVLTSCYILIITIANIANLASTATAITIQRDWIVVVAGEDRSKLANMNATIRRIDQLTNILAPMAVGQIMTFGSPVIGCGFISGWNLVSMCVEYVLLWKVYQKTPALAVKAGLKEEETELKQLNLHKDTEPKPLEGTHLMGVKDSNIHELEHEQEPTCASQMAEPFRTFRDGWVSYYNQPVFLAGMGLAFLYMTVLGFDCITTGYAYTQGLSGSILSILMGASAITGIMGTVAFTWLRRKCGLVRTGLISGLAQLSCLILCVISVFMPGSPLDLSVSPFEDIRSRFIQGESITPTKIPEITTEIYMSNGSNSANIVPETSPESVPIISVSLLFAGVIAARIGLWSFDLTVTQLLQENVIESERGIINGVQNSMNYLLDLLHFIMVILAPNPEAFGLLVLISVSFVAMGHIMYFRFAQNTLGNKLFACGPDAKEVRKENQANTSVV
Description: The cDNA encoding the human ferroportin (SLC40A1) was cloned from a cDNA clone from Origene (NM_014585). The DNA encoding the ferroportin was amplified by PCR using primers also encoding terminal restriction sites for subcloning, but without the termination codon. The ferroportin receptor was subcloned into a mammalian GFP expression vector containing a neomycin (G418) resistance marker in such that the reading frame of the ferroportin was fused in frame with the GFP protein. The fidelity of the DNA encoding the protein was confirmed by DNA sequencing. HEK293 cells were used for transfection of the ferroportin-GFP receptor expression plasmid. The cells were grown according to standard protocol in growth medium and transfected with the plasmids using Lipofectamine (manufacturer's protocol, Invitrogen). […] The cells were propagated and frozen in aliquots.
A retro inverse peptide is a peptide with a reversed sequence in all D amino acids. […] The EC50 of these reference compounds for ferroportin degradation was determined according to the activity assay described above.

[2] = Stability in human serum (LC-MS); format: in vitro ADME; settings: 10 μM peptide, 37 degrees C, up to 24 hours
Protocol: Serum stability experiments were undertaken to complement the in vivo results and assist in the design of potent, stable Ferroportin agonists. In order to predict the stability in humans, ex vivo stability studies were initially performed in human serum.
Samples were taken at various time points up to 24 hours. The samples were separated from serum proteins and analysed for the presence of the peptide of interest using LC-MS. The amount of intact peptide in each sample was calculated using the analyte peak area in relation to the zero time point.
(§1) The peptides were also tested for other pharmacokinetic/pharmacodynamic (PK/PD) parameters using methods commonly know by the skilled artisan. These parameters included determinations regarding stability (hours stable in plasma from the indicated human or rat subject), half-life in mice, and in vitro activity (EC50), tested as described in Example 2.

[3] = system: serum iron; experiment: In vivo serum iron reduction in mice; set-up: species or system mice (C57-BL6); settings: C57BL6 mice, time course, FIG. 6
[4] = system: serum iron; experiment: In vivo serum iron reduction in mice; set-up: species or system mice (C57-BL6); settings: s.c., tested in rats or in mice
Protocol: Instead of rats, mice (C57-BL6) were tested.
A similar experiment was performed with lower doses to assess the dose response of these compounds for inducing serum iron reduction. Methods were as described above in this Example, except for the following parameters: n=4 mice/group, however n=8 for the vehicle, as two groups were pooled. Mice were administered test compounds at two separate dosages (300 nmol/kg or 1000 nmol/kg), via subcutaneous injection. Serum iron levels were assessed as in Example 8 two hours after peptide or vehicle injection. […] Moreover, it was clear that several of the compounds were able to induce maximum effects at dosages as low as 300 nmol/kg.
The route of peptide administration was via subcutaneous injection, unless otherwise indicated as having been via intraperitoneal injection (this is noted on the table by “i.p.” in parentheses following the “yes” or “no” determination).
as §1

[5] = system: serum iron; experiment: Reduction of free plasma iron in rats (serum iron after i.p. dosing); format: in vivo, Sprague-Dawley rats; settings: IP dosing, FIGS. 2 and 3
Protocol: At Day 1, the animals were monitored for free Fe^2+ in serum. In order to reach a homogenous serum level, Fe^2+ was analyzed and a homogenous cohort of 7 or 8 animals randomized to each treatment group. At Day 2, an acute experiment where the animals were subjected to i.p. dosing of test compound and subsequent tail vein blood samples. Prior to dosing, the animals were put under a heating lamp for 3-5 minutes. Blood samples were drawn from the tail vein from all animals in order to determine serum iron levels prior to vehicle or compound dosing. Animals were dosed i.p. with 1 ml of test substance in vehicle or just vehicle and blood samples of 250 μl was drawn from each animal at t=0, 60, 120, 240, 360 min and 24 hours in the study of the reference compound. The dose response study performed with Retro Inverse (RI) mini-Hepcidin (Reference compound), and the efficacy study performed with Compound No. 2 were performed as two separate experiments. […]
Male Sprague-Dawley rats weighing 200-250 g were used in the study. […] Humane endpoints were applied, according to OECD's “Guidelines for Endpoints in Animal Study Proposals.” The animals were monitored daily.
Iron content in plasma/serum is measured for iron content using a colorimetric assay on the Cobas c 111 according to instructions from the manufacturer of the assay (assay: IRON2: ACN 661). […]

[6] = Hepcidin analog peptides, read-out: Potency EC50
[7] = read-out: EC50 (nM) (n > 3), alanine scan of Compound 18

| Substance | EC50 [1, 6] | EC50 [1, 7] | t½ [2] | serum iron, PK/PD effects [3] | In Vivo Activity (s.c.) 300 nmol/kg [4] | In Vivo Activity (s.c.) 1000 nmol/kg [4] | serum iron level [5] |
| --- | --- | --- | --- | --- | --- | --- | --- |
| H-DTHFPICIFGPRSKGWACM-NH2 (cysteine pairing not given here) [Compound 47] | 313 nM | 313 nM | ~40 h | – | – | – | – |
| H-DTHFPICIFGPRSKGWVCM-NH2 (cysteine pairing not given here) [Compound 18] | 125 nM | 125 nM | 2.32 h | – | – | – | – |
| Isovaleric acid-DTHFPCIKFEPRSKGWVCK-NH2 [Compound 181] | – | – | – | a rapid decrease in serum iron, which was transient | Yes | – | – |
| Isovaleric acid-DTHFPCIKFGPRSKGWVC-K(PEG8)-NH2 [Compound 153] | – | – | – | sustained | Yes | Yes | – |
| Isovaleric acid-DTHFPICIFGPRSKGWVC-NH2 [Compound 2] | – | – | – | – | Yes | Yes | a decrease in serum iron level that was comparable to that observed after injection of the positive control |
